The results in this text go back to patent publication EP1043986B1, “MIXTURE AND PHARMACEUTICAL COMPOSITION COMPRISING Z-4-HYDROXYTAMOXIFEN AND CYCLODEXTRIN” (priority 1997, dated 1999).

This data set is described as follows: 10-day stability test in water and in 96 % ethanol, room temperature, normal day light, capillary electrophoresis. The data set is classed as physicochemical. The following applies: 10-days storage in 96 % ethanol. The procedure: A 10-day stability test in water and in 96 % ethanol at room temperature and exposure to normal day light, using 4-hydroxytamoxifen and the 4-hydrorytamoxifen/ γ-cyclodextrin complex prepared according to example 1 was performed. The change of E/Z isomer ratio was analyzed with capillary electrophoresis.

Regarding “1-(p-β-dimethylaminoethoxyphenyl)-1-(p-hydroxyphenyl)-2-phenylbut-1-en [4-Hydroxytamoxifen]”, the “Efficiency value (ratio of uncomplexed and complexed 4-hydroxytamoxifen re/z values)” value is reported as 4,65. In addition, the Ratio re/z (room temperature, normal day light) is on record as 0,223.
